Species on record: Rattus norvegicus
Assay: DrugMatrix - Regimen: Daily Repeat
Type: toxicity, organism-based, Sprague-Dawley
Set-up: regimen Daily Repeat, gender Male, age 6-8 weeks
Conditions: in vivo, po, route oral GAVAGE, vehicle .5 % CMC; for BASOPHIL / EOSINOPHIL / ERYTHROCYTE COUNT / HEMATOCRIT / HEMOGLOBIN / LEUKOCYTE COUNT / LYMPHOCYTE / MEAN CORPUSCULAR HEMOGLOBIN / MEAN CORPUSCULAR HEMOGLOBIN CONCENTRATION / MEAN CORPUSCULAR VOLUME / MONOCYTE / NEUTROPHIL / PLATELET COUNT: tissue Blood; for ALANINE AMINOTRANSFERASE / ALBUMIN / ALKALINE PHOSPHATASE / ASPARTATE AMINOTRANSFERASE / BLOOD UREA NITROGEN / CHLORIDE / CHOLESTEROL / CREATINE PHOSPHOKINASE / CREATININE / GLUCOSE / PHOSPHORUS / POTASSIUM / SODIUM / TOTAL BILIRUBIN / TOTAL PROTEIN: tissue Plasma
[1] = 0 mg/kg, 72 h, dose level Control, time 3 day
[2] = 0 mg/kg, 120 h, dose level Control, time 5 day
[3] = 32 mg/kg, 72 h, dose level Low, time 3 day
[4] = 32 mg/kg, 120 h, dose level Low, time 5 day

Q: CC[C@H]1OC(=O)[C@H](C)[C@@H](O[C@H]2C[C@@](C)(OC)[C@@H](O)[C@H](C)O2)[C@H](C)[C@@H](O[C@@H]2O[C@H](C)C[C@H](N(C)C)[C@H]2O)[C@](C)(O)C[C@@H](C)/C(=N\OCOCCOC)[C@H](C)[C@@H](O)[C@]1(C)O [ROXITHROMYCIN] was tested. Which BASOPHIL [1] did it give?
A: 1.52%

Q: And the EOSINOPHIL [1]?
A: 0.98%

Q: What about the “ERYTHROCYTE COUNT” value [1] of the same compound?
A: 6.96 x10E6/uL

Q: And the HEMATOCRIT [1]?
A: 44.65%

Q: What about the HEMOGLOBIN [1] of the same compound?
A: 13.62 G/DL

Q: What about the “LEUKOCYTE COUNT” value [1] of the same compound?
A: 9.83 x10E3/uL

Q: What about the LYMPHOCYTE [1] of the same compound?
A: 76.48%

Q: What about the “MEAN CORPUSCULAR HEMOGLOBIN” value [1] of the same compound?
A: 19.57 pg

Q: And the “MEAN CORPUSCULAR HEMOGLOBIN CONCENTRATION” value [1]?
A: 30.47 G/DL

Q: And the “MEAN CORPUSCULAR VOLUME” value [1]?
A: 64.22 fL

Q: And the MONOCYTE [1]?
A: 2.13%

Q: What about the NEUTROPHIL [1] of the same compound?
A: 18.6%

Q: And the “PLATELET COUNT” value [1]?
A: 1217.17 x10E3/uL

Q: And the “ALANINE AMINOTRANSFERASE” value [1]?
A: 41 u/L

Q: And the ALBUMIN [1]?
A: 3.77 G/DL

Q: And the “ALKALINE PHOSPHATASE” value [1]?
A: 411.83 u/L

Q: And the “ASPARTATE AMINOTRANSFERASE” value [1]?
A: 62.83 u/L

Q: And the “BLOOD UREA NITROGEN” value [1]?
A: 15.17 mg/dL

Q: And the CHLORIDE [1]?
A: 104.33 MEQ/L

Q: What about the CHOLESTEROL [1] of the same compound?
A: 71.17 mg/dL

Q: What about the “CREATINE PHOSPHOKINASE” value [1] of the same compound?
A: 123.5 u/L

Q: What about the CREATININE [1] of the same compound?
A: 0.55 mg/dL

Q: What about the GLUCOSE [1] of the same compound?
A: 182.67 mg/dL

Q: What about the PHOSPHORUS [1] of the same compound?
A: 11.23 mg/dL

Q: And the POTASSIUM [1]?
A: 7.03 MEQ/L

Q: What about the SODIUM [1] of the same compound?
A: 148 MEQ/L

Q: And the “TOTAL BILIRUBIN” value [1]?
A: 0.57 mg/dL

Q: What about the “TOTAL PROTEIN” value [1] of the same compound?
A: 6.85 G/DL

Q: And the BASOPHIL [2]?
A: 1.35%

Q: What about the EOSINOPHIL [2] of the same compound?
A: 0.43%

Q: What about the “ERYTHROCYTE COUNT” value [2] of the same compound?
A: 6.96 x10E6/uL

Q: What about the HEMATOCRIT [2] of the same compound?
A: 44.35%

Q: What about the HEMOGLOBIN [2] of the same compound?
A: 13.98 G/DL

Q: What about the “LEUKOCYTE COUNT” value [2] of the same compound?
A: 9.45 x10E3/uL

Q: What about the LYMPHOCYTE [2] of the same compound?
A: 80.83%

Q: And the “MEAN CORPUSCULAR HEMOGLOBIN” value [2]?
A: 20.1 pg

Q: What about the “MEAN CORPUSCULAR HEMOGLOBIN CONCENTRATION” value [2] of the same compound?
A: 31.52 G/DL

Q: What about the “MEAN CORPUSCULAR VOLUME” value [2] of the same compound?
A: 63.72 fL

Q: What about the MONOCYTE [2] of the same compound?
A: 2.37%

Q: What about the NEUTROPHIL [2] of the same compound?
A: 14.05%

Q: What about the “PLATELET COUNT” value [2] of the same compound?
A: 1298 x10E3/uL

Q: And the “ALANINE AMINOTRANSFERASE” value [2]?
A: 42.17 u/L

Q: And the ALBUMIN [2]?
A: 3.77 G/DL

Q: And the “ALKALINE PHOSPHATASE” value [2]?
A: 419 u/L

Q: What about the “ASPARTATE AMINOTRANSFERASE” value [2] of the same compound?
A: 66.67 u/L

Q: And the “BLOOD UREA NITROGEN” value [2]?
A: 16.67 mg/dL

Q: And the CHLORIDE [2]?
A: 103.17 MEQ/L

Q: And the CHOLESTEROL [2]?
A: 66.33 mg/dL

Q: What about the “CREATINE PHOSPHOKINASE” value [2] of the same compound?
A: 148.33 u/L

Q: And the CREATININE [2]?
A: 0.58 mg/dL

Q: What about the GLUCOSE [2] of the same compound?
A: 196.83 mg/dL

Q: What about the PHOSPHORUS [2] of the same compound?
A: 11.8 mg/dL

Q: What about the POTASSIUM [2] of the same compound?
A: 6.47 MEQ/L

Q: What about the SODIUM [2] of the same compound?
A: 148.33 MEQ/L

Q: And the “TOTAL BILIRUBIN” value [2]?
A: 0.53 mg/dL

Q: And the “TOTAL PROTEIN” value [2]?
A: 6.77 G/DL

Q: And the BASOPHIL [3]?
A: 1.33%

Q: What about the EOSINOPHIL [3] of the same compound?
A: 0.27%

Q: And the “ERYTHROCYTE COUNT” value [3]?
A: 7.39 x10E6/uL

Q: What about the HEMATOCRIT [3] of the same compound?
A: 47.23%

Q: What about the HEMOGLOBIN [3] of the same compound?
A: 14.73 G/DL

Q: What about the “LEUKOCYTE COUNT” value [3] of the same compound?
A: 12.3 x10E3/uL

Q: And the LYMPHOCYTE [3]?
A: 88.63%

Q: What about the “MEAN CORPUSCULAR HEMOGLOBIN” value [3] of the same compound?
A: 19.9 pg

Q: And the “MEAN CORPUSCULAR HEMOGLOBIN CONCENTRATION” value [3]?
A: 31.13 G/DL

Q: What about the “MEAN CORPUSCULAR VOLUME” value [3] of the same compound?
A: 63.97 fL

Q: What about the MONOCYTE [3] of the same compound?
A: 1.7%

Q: What about the NEUTROPHIL [3] of the same compound?
A: 7.6%

Q: What about the “PLATELET COUNT” value [3] of the same compound?
A: 1462 x10E3/uL

Q: What about the “ALANINE AMINOTRANSFERASE” value [3] of the same compound?
A: 37.67 u/L

Q: And the ALBUMIN [3]?
A: 3.7 G/DL

Q: And the “ALKALINE PHOSPHATASE” value [3]?
A: 340.33 u/L

Q: And the “ASPARTATE AMINOTRANSFERASE” value [3]?
A: 58.33 u/L

Q: And the “BLOOD UREA NITROGEN” value [3]?
A: 12.33 mg/dL

Q: And the CHLORIDE [3]?
A: 104.67 MEQ/L

Q: And the CHOLESTEROL [3]?
A: 59.67 mg/dL

Q: What about the “CREATINE PHOSPHOKINASE” value [3] of the same compound?
A: 128 u/L

Q: And the CREATININE [3]?
A: 0.57 mg/dL

Q: What about the GLUCOSE [3] of the same compound?
A: 224 mg/dL

Q: What about the PHOSPHORUS [3] of the same compound?
A: 13.23 mg/dL

Q: And the POTASSIUM [3]?
A: 6.93 MEQ/L

Q: What about the SODIUM [3] of the same compound?
A: 148.67 MEQ/L

Q: And the “TOTAL BILIRUBIN” value [3]?
A: 0.4 mg/dL

Q: And the “TOTAL PROTEIN” value [3]?
A: 6.7 G/DL

Q: What about the BASOPHIL [4] of the same compound?
A: 1.4%

Q: What about the EOSINOPHIL [4] of the same compound?
A: 0.3%

Q: And the “ERYTHROCYTE COUNT” value [4]?
A: 7.37 x10E6/uL

Q: And the HEMATOCRIT [4]?
A: 44.93%

Q: And the HEMOGLOBIN [4]?
A: 14.13 G/DL

Q: What about the “LEUKOCYTE COUNT” value [4] of the same compound?
A: 11.7 x10E3/uL

Q: What about the LYMPHOCYTE [4] of the same compound?
A: 81.47%

Q: And the “MEAN CORPUSCULAR HEMOGLOBIN” value [4]?
A: 19.27 pg

Q: And the “MEAN CORPUSCULAR HEMOGLOBIN CONCENTRATION” value [4]?
A: 31.5 G/DL

Q: What about the “MEAN CORPUSCULAR VOLUME” value [4] of the same compound?
A: 61.2 fL

Q: What about the MONOCYTE [4] of the same compound?
A: 2.4%

Q: What about the NEUTROPHIL [4] of the same compound?
A: 13.53%

Q: What about the “PLATELET COUNT” value [4] of the same compound?
A: 1353.33 x10E3/uL

Q: What about the “ALANINE AMINOTRANSFERASE” value [4] of the same compound?
A: 35.67 u/L

Q: What about the ALBUMIN [4] of the same compound?
A: 3.57 G/DL

Q: What about the “ALKALINE PHOSPHATASE” value [4] of the same compound?
A: 391.67 u/L

Q: And the “ASPARTATE AMINOTRANSFERASE” value [4]?
A: 57.67 u/L

Q: And the “BLOOD UREA NITROGEN” value [4]?
A: 12.67 mg/dL

Q: And the CHLORIDE [4]?
A: 103 MEQ/L

Q: What about the CHOLESTEROL [4] of the same compound?
A: 66.33 mg/dL

Q: What about the “CREATINE PHOSPHOKINASE” value [4] of the same compound?
A: 131.67 u/L

Q: And the CREATININE [4]?
A: 0.57 mg/dL

Q: And the GLUCOSE [4]?
A: 185.67 mg/dL

Q: And the PHOSPHORUS [4]?
A: 12.77 mg/dL

Q: And the POTASSIUM [4]?
A: 6.73 MEQ/L

Q: And the SODIUM [4]?
A: 148.33 MEQ/L

Q: And the “TOTAL BILIRUBIN” value [4]?
A: 0.3 mg/dL

Q: What about the “TOTAL PROTEIN” value [4] of the same compound?
A: 6.23 G/DL
